We go through two compounds from ChEMBL document CHEMBL1149066, “Esperamicin P, the tetrasulfide analog of esperamicin A1” (J Nat Prod, 1994).

In brackets after ≈: the same amount, converted by molar mass. Activity calls are given as the source filed them. No cut-off for these calls is given here.

The test system of assay [1] is P388. The experiment in a line: Antitumor activity against mouse P388 cells in iv dosed in vivo system. The assay is classed as functional, organism-based.
The next assay deals with HCT-116. The experiment in a line: Cytotoxicity against human HCT116 cells. The class given is functional, cell-based.
Assay [2] has as its system Escherichia coli. Description: Antimicrobial activity against Escherichia coli A20697 by serial twofold dilution method. The assay is classed as functional.
Assay [3] deals with A549. Description: Cytotoxicity against […]-resistant human A549 cells. The assay is classed as functional, cell-based.
Assay [4] relates to Staphylococcus aureus. Description: Antimicrobial activity against Staphylococcus aureus A20698 by serial twofold dilution method. The class given is functional.
The subject of a further assay is Proteus vulgaris. Description: Antimicrobial activity against Proteus vulgaris A21559 by serial twofold dilution method. The class given is functional.
Assay [5] concerns Pseudomonas aeruginosa. The experiment in a line: Antimicrobial activity against Pseudomonas aeruginosa A20235 by serial twofold dilution method. The class given is functional.
Assay [6] has as its system Escherichia coli. Description: Antimicrobial activity against Escherichia coli A15119 by serial twofold dilution method. The assay is classed as functional.
The test system of assay [7] is P388. The experiment in a line: In vivo antitumor activity against mouse P388 cells at 1 to 3 ug/kg, ip. The assay is classed as functional.
Assay [8] deals with Staphylococcus aureus. The experiment in a line: Antimicrobial activity against Staphylococcus aureus A24407 by serial twofold dilution method. The assay is classed as functional.
Assay [9] deals with Pseudomonas aeruginosa. The experiment in a line: Antimicrobial activity against Pseudomonas aeruginosa A9843 by serial twofold dilution method. The class given is functional.
In assay [10] the test system is Enterococcus faecalis. The experiment in a line: Antimicrobial activity against Enterococcus faecalis A20688 by serial twofold dilution method. The assay is classed as functional.
The test system of assay [11] is Escherichia coli. Description: Antimicrobial activity against Escherichia coli A9751 by serial twofold dilution method. The assay is classed as functional.
Assay [12] relates to Klebsiella pneumoniae. The experiment in a line: Antimicrobial activity against Klebsiella pneumoniae A20468 by serial twofold dilution method. The class given is functional.
Assay [13] relates to Enterococcus faecalis. The experiment in a line: Antimicrobial activity against Enterococcus faecalis A25708 by serial twofold dilution method. The assay is classed as functional.
Assay [14] concerns Klebsiella pneumoniae. The experiment in a line: Antimicrobial activity against Klebsiella pneumoniae A9664 by serial twofold dilution method. The class given is functional.
For a further assay, the system named is B16. Description: Cytotoxicity against mouse B16-PRIM cells. The class given is functional, cell-based.
Assay [15] relates to A549. The experiment in a line: Cytotoxicity against human A549 cells. The assay is classed as functional, cell-based.
The test system of assay [16] is Enterococcus faecalis. Description: Antimicrobial activity against Enterococcus faecalis A25707 by serial twofold dilution method. The class given is functional.
For assay [17], the system named is Staphylococcus aureus. The experiment in a line: Antimicrobial activity against Staphylococcus aureus A9537 by serial twofold dilution method. The class given is functional.
The nature of assay [18]: Cytotoxicity against human HCT/VP35 cells. The class given is functional, cell-based.

Consider `C=C(OC)C(=O)Nc1cc(OC)c(OC)cc1C(=O)O[C@H]1C[C@H](O[C@@H]2C(=O)C(NC(=O)OC)=C3/C(=C\CSSSC)[C@]2(O)C#C/C=C\C#C[C@@H]3O[C@@H]2O[C@H](C)[C@@H](NO[C@H]3C[C@H](O)[C@H](SC)[C@@H](C)O3)[C@H](O)[C@H]2O[C@H]2C[C@H](OC)[C@@H](NC(C)C)CO2)O[C@@H](C)[C@H]1O`, for which, in the assay with P388 [1], the outcome was Active.
By IC50 is commonly meant the concentration that gives 50% inhibition. Higher therefore signals weaker potency in that assay. The MIC is the lowest concentration that inhibits growth of the organism. A low value points to inhibition by little substance. Broadly, the T/C is the ratio of treated to control. For the compound `C=C(OC)C(=O)Nc1cc(OC)c(OC)cc1C(=O)O[C@H]1C[C@H](O[C@@H]2C(=O)C(NC(=O)OC)=C3/C(=C\CSSSSC)[C@]2(O)C#C/C=C\C#C[C@@H]3O[C@@H]2O[C@H](C)[C@@H](NO[C@H]3C[C@H](O)[C@H](SC)[C@@H](C)O3)[C@H](O)[C@H]2O[C@H]2C[C@H](OC)[C@@H](NC(C)C)CO2)O[C@@H](C)[C@H]1O` [ESPERAMICIN P], the IC50 with HCT-116 is below 0.002 µg/mL; in the assay on A549 [3], 0.01 µg/mL (≈ 7.37 nM); in the assay on B16 it was above 0.002 µg/mL; in the assay with A549 [15], 0.01 µg/mL (≈ 7.37 nM); in [18], below 0.002 µg/mL. The MIC in the assay with Escherichia coli [2] is 0.25 µg/mL (≈ 184 nM); with Staphylococcus aureus [4], 0.001 µg/mL (≈ 0.737 nM); against Proteus vulgaris it was 0.13 µg/mL (≈ 95.8 nM); against Pseudomonas aeruginosa [5] it was 0.13 µg/mL (≈ 95.8 nM); against Escherichia coli [6], 0.25 µg/mL (≈ 184 nM); in the assay on Staphylococcus aureus [8], 0.001 µg/mL (≈ 0.737 nM). For the same compound, the MIC against Pseudomonas aeruginosa [9] worked out at 0.25 µg/mL (≈ 184 nM); against Enterococcus faecalis [10] it was 0.002 µg/mL (≈ 1.47 nM); against Escherichia coli [11] it was 0.016 µg/mL (≈ 11.8 nM); in the assay with Klebsiella pneumoniae [12], 1 µg/mL (≈ 737 nM); with Enterococcus faecalis [13], 0.002 µg/mL (≈ 1.47 nM); against Klebsiella pneumoniae [14], 1 µg/mL (≈ 737 nM). The MIC in the assay with Enterococcus faecalis [16] was 0.002 µg/mL (≈ 1.47 nM); against Staphylococcus aureus [17] it was 0.001 µg/mL (≈ 0.737 nM). In the assay with P388 [7], the T/C was found to be 145%. Also, in the assay with P388 [1], the result was inactive.
